# Data as given in PubChem BioAssay (NCI).
#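 Assay format: 96-well plates, 48-hour exposure. TGI denotes the concentration required for complete inhibition of growth.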
# What was measured:
# Test in all cases: inhibition of tumour cell growth, NCI panel, 48 h
# 786-0 renal = tested on: 786-0 renal
# A498 renal = tested on: A498 renal
# A549 NSCLC = tested on: A549 NSCLC
# ACHN renal = tested on: ACHN renal
# BT-549 breast = tested on: BT-549 breast
# CAKI-1 renal = tested on: CAKI-1 renal
# CCRF-CEM leukemia = tested on: CCRF-CEM leukemia
# COLO 205 colon = tested on: COLO 205 colon
# DU-145 prostate = tested on: DU-145 prostate
# EKVX NSCLC = tested on: EKVX NSCLC
# HCC-2998 colon = tested on: HCC-2998 colon
# HCT-116 colon = tested on: HCT-116 colon
# HCT-15 colon = tested on: HCT-15 colon
# HL-60(TB) leukemia = tested on: HL-60(TB) leukemia
# HOP-62 NSCLC = tested on: HOP-62 NSCLC
# HOP-92 NSCLC = tested on: HOP-92 NSCLC
# HS 578T breast = tested on: HS 578T breast
# HT29 colon = tested on: HT29 colon
# IGROV1 ovarian = tested on: IGROV1 ovarian
# K-562 leukemia = tested on: K-562 leukemia
# KM12 colon = tested on: KM12 colon
# LOX IMVI melanoma = tested on: LOX IMVI melanoma
# M14 melanoma = tested on: M14 melanoma
# MALME-3M melanoma = tested on: MALME-3M melanoma
# MCF7 breast = tested on: MCF7 breast
# MDA-MB-231 breast = tested on: MDA-MB-231 breast
# MDA-MB-435 = tested on: MDA-MB-435
# MDA-N = tested on: MDA-N
# MOLT-4 leukemia = tested on: MOLT-4 leukemia
# NCI-H226 lung = tested on: NCI-H226 lung
# NCI-H23 lung = tested on: NCI-H23 lung
# NCI-H460 lung = tested on: NCI-H460 lung
# NCI-H522 lung = tested on: NCI-H522 lung
# NCI/ADR-RES ovarian = tested on: NCI/ADR-RES ovarian
# OVCAR-3 ovarian = tested on: OVCAR-3 ovarian
# OVCAR-4 ovarian = tested on: OVCAR-4 ovarian
# OVCAR-5 ovarian = tested on: OVCAR-5 ovarian
# OVCAR-8 ovarian = tested on: OVCAR-8 ovarian
# PC-3 prostate = tested on: PC-3 prostate
# RPMI-8226 leukemia = tested on: RPMI-8226 leukemia
# RXF 393 renal = tested on: RXF 393 renal
# SF-268 CNS = tested on: SF-268 CNS
# SF-295 CNS = tested on: SF-295 CNS
# SF-539 CNS = tested on: SF-539 CNS
# SK-MEL-2 melanoma = tested on: SK-MEL-2 melanoma
# SK-MEL-28 melanoma = tested on: SK-MEL-28 melanoma
# SK-MEL-5 melanoma = tested on: SK-MEL-5 melanoma
# SN12C renal = tested on: SN12C renal
# SNB-19 CNS = tested on: SNB-19 CNS
# SNB-75 CNS = tested on: SNB-75 CNS
# SR leukemia = tested on: SR leukemia
# SW-620 colon = tested on: SW-620 colon
# TK-10 renal = tested on: TK-10 renal
# U251 CNS = tested on: U251 CNS
# UACC-257 melanoma = tested on: UACC-257 melanoma
# UO-31 renal = tested on: UO-31 renal
smiles,measurement,setting,value
O=CC1OC(=O)c2cc(O)c(O)c(O)c2-c2c(cc(O)c(O)c2O)C(=O)OC1C(O)C(O)CO (stereo unspecified),TGI,786-0 renal,> 100 µM
same,TGI,A498 renal,> 100 µM
same,TGI,A549 NSCLC,> 100 µM
same,TGI,ACHN renal,> 100 µM
same,TGI,BT-549 breast,> 100 µM
same,TGI,CAKI-1 renal,35.9 µM
same,TGI,CCRF-CEM leukemia,85.5 µM
same,TGI,COLO 205 colon,> 100 µM
same,TGI,DU-145 prostate,> 100 µM
same,TGI,EKVX NSCLC,> 100 µM
same,TGI,HCC-2998 colon,> 100 µM
same,TGI,HCT-116 colon,81.1 µM
same,TGI,HCT-15 colon,> 100 µM
same,TGI,HL-60(TB) leukemia,> 100 µM
same,TGI,HOP-62 NSCLC,> 100 µM
same,TGI,HOP-92 NSCLC,> 100 µM
same,TGI,HS 578T breast,> 100 µM
same,TGI,HT29 colon,46.8 µM
same,TGI,IGROV1 ovarian,> 100 µM
same,TGI,K-562 leukemia,44.2 µM
same,TGI,KM12 colon,> 100 µM
same,TGI,LOX IMVI melanoma,31.4 µM
same,TGI,M14 melanoma,> 100 µM
same,TGI,MALME-3M melanoma,> 100 µM
same,TGI,MCF7 breast,39.4 µM
same,TGI,MDA-MB-231 breast,35.8 µM
same,TGI,MDA-MB-435,32.9 µM
same,TGI,MDA-N,36.2 µM
same,TGI,MOLT-4 leukemia,56.8 µM
same,TGI,NCI-H226 lung,> 100 µM
same,TGI,NCI-H23 lung,> 100 µM
same,TGI,NCI-H460 lung,> 100 µM
same,TGI,NCI-H522 lung,> 100 µM
same,TGI,NCI/ADR-RES ovarian,> 100 µM
same,TGI,OVCAR-3 ovarian,> 100 µM
same,TGI,OVCAR-4 ovarian,37.8 µM
same,TGI,OVCAR-5 ovarian,> 100 µM
same,TGI,OVCAR-8 ovarian,45.8 µM
same,TGI,PC-3 prostate,31.9 µM
same,TGI,RPMI-8226 leukemia,72.4 µM
same,TGI,RXF 393 renal,> 100 µM
same,TGI,SF-268 CNS,> 100 µM
same,TGI,SF-295 CNS,67.9 µM
same,TGI,SF-539 CNS,> 100 µM
same,TGI,SK-MEL-2 melanoma,> 100 µM
same,TGI,SK-MEL-28 melanoma,> 100 µM
same,TGI,SK-MEL-5 melanoma,> 100 µM
same,TGI,SN12C renal,> 100 µM
same,TGI,SNB-19 CNS,> 100 µM
same,TGI,SNB-75 CNS,> 100 µM
same,TGI,SR leukemia,51.3 µM
same,TGI,SW-620 colon,32.9 µM
same,TGI,TK-10 renal,> 100 µM
same,TGI,U251 CNS,32.3 µM
same,TGI,UACC-257 melanoma,> 100 µM
same,TGI,UO-31 renal,> 100 µM
